Key:
[1] = system: protein-associated 3-nitrotyrosine; test: Assay for protein-associated nitrotyrosine in hBMVECs; assay type: cell-based, human; conditions: thrombin 0.1 unit/ml 20 min; L-NIO or FeTPPS 10 μM pretreated 30 min; ELISA
Protocol: Cell culture: Primary human brain microvascular endothelial cells (hBMVECs) were purchased from Angio-Proteomie (Cat #: cAP-0002, Atlanta, Ga.). The cells were cultured in cell culture flasks or plates precoated with Quick Coating Solution (Angio-Proteomie; Cat #: cAP-01) and maintained in Endothelial Growth Medium (Angio-Proteomie; Cat #: cAP-02) at 37° C. under 5% CO2/95% air. When the cells were almost confluent, the medium was replaced with endothelial basal medium (Angio-Proteomie; Cat #: cAP-03) containing 0.5% fetal bovine serum (FBS; Life Technologies, Grand Island, N.Y.) about 8-12 hours before the experiment. No institutional approval was required for this study. The study was not pre-registered.
Cellular levels of protein-associated 3-nitrotyrosine were analyzed by ELISA Kit (Abeam, Cat #: ab116691) and Western blot analysis using antibody specific to 3-nitrotyrosine (Abeam, Cat #: ab61392). For the ELISA, hBMVECs were lysed in extraction buffer provided with the kit followed by centrifugation at 16,000×g 4° C. The cell lysate supernatants were subjected to protein quantification with Bio-Rad DC protein assay kit (Bio-Rad, Hercules, Calif.) and the equal amounts of proteins (500 μg) were loaded onto 96 well microplate coated with 3-nitrotyrosine capture antibody and followed by incubation with biotin-conjugated 3-nitrotyrosine detector antibody. Following washing, the plates were incubated with HRP-conjugated streptoavidin and the levels of 3-nitrotyrosine were measured by incubation with 3,3′,5,5′-tetramethylbenzidine solution and colorimetric analysis at […] using SpectraMax 190 Microplate Reader (Molecular Devices, Sunnyvale, Calif.). For analysis of degree of RhoA tyrosine nitration, the cell lysates were immunoprecipiated with antibody specific to 3-nitrotyrosine (Abeam) and the levels of tyrosine nitrated RhoA were analyzed by Western analysis for RhoA.

diabetic mice = test: Radial arm maze in STZ induced diabetic mice; assay type: in vivo
Protocol: Male laca mice weighing between 28-32 g were procured from the Central Animal House, Panjab University, Chandigarh. The animals were acclimatized and were fed with standard pellet diet and water ad libitum. The experimental protocols were approved by the Institutional Ethics Committee and were conducted according to Indian National Science Academy (INSA) guidelines for the use and care of experimental animals. The animals were divided into four groups: (i) Control animals received phosphate buffered saline (PBS) throughout the study; (ii) Control+GSNO animals were administered with GSNO 100 μg/kg body weight orally, dissolved in PBS after every 24 h for 8 weeks; (iii) Diabetic animals were injected with STZ at a dose of 40 mg/kg body weight intraperitoneally for 5 days dissolved in 0.1 mol/L citrate buffer, pH 4.5 and Diabetic+GSNO mice were administered GSNO 100 μg/kg body weight orally dissolved in PBS after every 24 h for 8 weeks after the induction of diabetes. Animals were assessed weekly for development of diabetic encephalopathy in terms of memory deficits. All experimental procedures were done on mice at the end of study. Radial arm maze was used to assess specific learning and memory in the radial arm maze (Veena et al., 2009). Its apparatus consisted of equally spaced arms (35×9×5 cm) radiating from an octagonal central platform, and the maze was kept 80 cm elevated from the ground. Prior to the acquisition, all the arms were baited and mice were allowed to explore the maze for 10 min and were subjected to two such acclimatization sessions on consecutive days. […] An arm choice was recorded when the animal reached the end of an arm. An arm entry was counted when all four paws entered the arm. […] After acquisition period, animals were evaluated for retention of the task. […] The data were analyzed for the number of reference memory errors (exploring an arm never baited), working memory errors (exploring a baited arm already visited), total number of errors, memory retention and % correct choice.

[2] = diabetic mice, GSNO 100 μg/kg body weight orally daily for 8 weeks, vs diabetic group

Row | Structure (SMILES) | thrombin-induced 3-nitrotyrosine levels [1] | increase in the percentage of correct choices (diabetic mice; [2]) [%] | lowered number of errors (diabetic mice; [2]) [%] | radial arm maze parameters of GSNO-treated control mice (diabetic mice; non-diabetic control mice, GSNO 100 μg/kg orally for 8 weeks, vs control mice)
1 | Cl.O=S(=O)([O-])c1ccc(-c2c3nc(c(-c4ccc(S(=O)(=O)O)cc4)c4ccc([nH]4)c(-c4ccc(S(=O)(=O)O)cc4)c4nc(c(-c5ccc(S(=O)(=O)O)cc5)c5ccc2[nH]5)C=C4)C=C3)cc1.[Fe] [FeTPPS, 5,10,15,20-Tetrakis(4-sulfonatophenyl)porphyrinato Iron (III), Cl, reference compound] | inhibited | – | – | –
2 | N[C@@H](CCC(=O)N[C@@H](CSN=O)C(=O)NCC(=O)O)C(=O)O [GSNO, S-nitrosoglutathione] | – | 30 | 44 | not significantly different from control mice
